Data: US8815934B2, “2-Phenyl-1-[4-(2-Aminoethoxy)-Benzyl]-Indole and estrogen formulations” (Wyeth LLC, priority 1998, dated 2014)

Assays:
estrogen receptor = estrogen receptor (Homo sapiens (Human), UniProt P03372); test: 2×VIT ERE infection luciferase assay; format: cell-based; settings: for Infection Luciferase Activity, 1 uM + 17β estradiol: 1 uM compound + 1 nM 17β-estradiol (estrogen antagonism); for Infection Luciferase Activity, 1 uM: 1 uM compound alone, percentage of activity as compared to 17β-estradiol
Chain of estrogen receptor (P03372 whole entry): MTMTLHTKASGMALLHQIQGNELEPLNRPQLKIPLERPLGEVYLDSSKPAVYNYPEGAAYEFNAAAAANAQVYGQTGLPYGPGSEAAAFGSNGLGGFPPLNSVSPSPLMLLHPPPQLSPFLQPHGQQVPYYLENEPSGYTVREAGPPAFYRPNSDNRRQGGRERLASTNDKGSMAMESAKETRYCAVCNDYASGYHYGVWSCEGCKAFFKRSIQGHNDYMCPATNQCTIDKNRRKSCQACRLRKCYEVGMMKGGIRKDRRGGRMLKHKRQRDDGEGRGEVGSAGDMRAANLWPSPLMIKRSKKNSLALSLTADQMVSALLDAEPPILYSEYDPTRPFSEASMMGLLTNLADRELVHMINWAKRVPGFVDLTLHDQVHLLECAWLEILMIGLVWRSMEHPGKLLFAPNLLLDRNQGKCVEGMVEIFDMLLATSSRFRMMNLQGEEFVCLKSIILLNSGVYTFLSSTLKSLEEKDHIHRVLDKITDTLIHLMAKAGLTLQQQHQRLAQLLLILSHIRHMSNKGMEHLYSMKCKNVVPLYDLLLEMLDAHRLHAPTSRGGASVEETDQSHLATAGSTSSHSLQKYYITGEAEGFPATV
Method: Chinese Hamster Ovary cells (CHO) which had been stably transfected with the human estrogen receptor were maintained in DMEM+10% fetal bovine serum (FBS). 48 h prior to treatment the growth medium was replaced with DMEM lacking phenol red+10% dextran coated charcoal stripped FBS (treatment medium). Cells were plated at a density of 5000 cells/well in 96-well plates containing 200 μL of medium/well.
Reporter DNA (Promega plasmid pGL2 containing two tandem copies of the vitellogenin ERE in front of the minimal thymidine kinase promoter driving the luciferase gene) was combined with the B-galactosidase expression plasmid pCH110 (Pharmacia) and carrier DNA (pTZ18U) in the following ratio:
20 uL of this mixture was added to each well of cells and remained on the cells for 16 h. […] Each treatment condition was performed on 8 wells (n=8) which were incubated for 24 h prior to the luciferase assay.
After removing the PBS, 25 uL of Promega lysis buffer was added to each well and allowed to stand at room temperature for 15 min, followed by 15 min at −80° C. and 15 min at 37° C. 20 uL of lysate was transferred to an opaque 96 well plate for luciferase activity evaluation and the remaining lysate (5 uL) was used for the B-galactosidase activity evaluation (normalize transfection). The luciferan substrate (Promega) was added in 100 uL aliquots to each well automatically by the luminometer and the light produced (relative light units) was read 10 seconds after addition.
To the remaining 5 uL of lysate 45 uL of PBS was added. Then 50 uL of Promega B-galactosidase 2× assay buffer was added, mixed well and incubated at 37° C. for 1 hour. A plate containing a standard curve (0.1 to 1.5 milliunits in triplicate) was set up for each experimental run. The plates were analyzed on a Molecular Devices spectrophotometric plate reader at 410 nm. The optical densities for the unknown were converted to milliunits of activity by mathematical extrapolation from the standard curve.
The luciferase data was generated as relative light units (RLUs) accumulated during a 10 second measurement and automatically transferred to a JMP (SAS Inc) file where background RLUs were subtracted. The B-galactosidase values were automatically imported into the file and these values were divided into the RLUs to normalize the data. The mean and standard deviations were determined from a n=8 for each treatment. […] These techniques are described by Tzukerman, M. T., Esty, A., Santiso-Mere, D., Danielian, P., Parker, M. G., Stein, R. B., Pike, J. W. and McDonnel, D. P. (1994). Human estrogen receptor transactivational capacity was determined by both cellular and promoter context and mediated by two functionally distinct intramolecular regions (see Molecular Endocrinology, 8:21-30).

[1] = system: Immature Sprague-Dawley rats; test: Rat uterotrophic/antiuterotrophic bioassay; format: in vivo; settings: immature female rats, daily ip; for Uterine wt mg 100 uG cmpd + 1uG 17β-estradiol: 100 uG compound + 1 uG 17β-estradiol; for Uterine wt mg 100 uG cmpd: 100 uG compound, wet weight
Method: The estrogenic and antiestrogenic properties of the compounds were determined in an immature rat uterotrophic assay (4 day) that (as described previously by L. J. Black and R. L. Goode, Life Sciences, 26, 1453 (1980)). Immature Sprague-Dawley rats (female, 18 days old) were tested in groups of six. […] On day 4 the animals were sacrificed by CO2 asphyxiation and their uteri were removed and stripped of excess lipid, any fluid removed and the wet weight determined. A small section of one horn was submitted for histology and the remainder used to isolate total RNA in order to evaluate complement component 3 gene expression.

Structure (SMILES) | Infection Luciferase Activity, 1 uM + 17β estradiol (estrogen receptor) | Infection Luciferase Activity, 1 uM (estrogen receptor) | Uterine wt mg 100 uG cmpd + 1uG 17β-estradiol [1] | Uterine wt mg 100 uG cmpd [1]
Cc1c(-c2ccccc2)n(Cc2ccc(OCCN3CCCCC3)cc2)c2ccc(O)cc12 [No. 87, 3-Methyl-2-phenyl-1-[4-(2-piperidine-1-yl-ethoxy)-benzyl]-1H-indol-5-ol] | 0% | 0% |  | 
Cc1c(-c2ccc(O)cc2)n(Cc2ccc(OCCN3CCCCC3)cc2)c2ccc(F)cc12 [No. 94, 4-{5-Fluoro-3-methyl-1-[4-(2-piperidin-1-yl-ethoxy)-benzyl]-1H-indol-2-yl}-phenol] |  |  | 93.7 mg | 28.1 mg
Cc1c(-c2ccccc2)n(Cc2ccc(OCCN3CCCCCC3)cc2)c2ccc(O)cc12 [No. 95, 1-[4-(2-Azepan-1-yl-ethoxy)-benzyl]-3-methyl-2-phenyl-1H-indol-5-ol] | −4% | −4% |  | 
Cc1c(-c2ccc(O)cc2)n(Cc2ccc(OCCN3CCCC3)cc2)c2ccc(O)cc12 [No. 96, 2-(4-Hydroxy-phenyl)-3-methyl-1-[4-(2-pyrollidin-1-yl-ethoxy)-benzyl]-1H-indol-5-ol] | 8% | 12% |  | 
Cc1c(-c2ccc(O)cc2)n(Cc2ccc(OCCN3CCCCC3)cc2)c2ccc(O)cc12 [No. 97, 2-(4-Hydroxy-phenyl)-3-methyl-1-[4-(2-piperidin-1-yl-ethoxy)-benzyl]-1H-indol-5-ol] |  |  | 24.3 mg | 27.4 mg
Cc1c(-c2ccc(O)cc2)n(Cc2ccc(OCCN(C)C)cc2)c2ccc(O)cc12 [No. 100, 2-(4-Hydroxy-phenyl)-3-methyl-1-[4-(2-dimethyl-1-yl-ethoxy)-benzyl]-1H-indol-5-ol] |  |  | 68.7 mg | 59.9 mg
CCN(CC)CCOc1ccc(Cn2c(-c3ccc(O)cc3)c(C)c3cc(O)ccc32)cc1 [No. 101, 2-(4-Hydroxy-phenyl)-3-methyl-1-[4-(2-diethyl-1-yl-ethoxy)-benzyl]-1H-indol-5-ol] |  |  | 71.0 mg | 65.1 mg
CCCN(CCC)CCOc1ccc(Cn2c(-c3ccc(O)cc3)c(C)c3cc(O)ccc32)cc1 [No. 102, 1-[4-(2-Dipropylamino-ethoxy)-benzyl]-2-(4-hydroxy-phenyl)-3-methyl-1H-indol-5-ol] | 10% | 9% |  | 
CCCCN(CCCC)CCOc1ccc(Cn2c(-c3ccc(O)cc3)c(C)c3cc(O)ccc32)cc1 [No. 103, 1-[4-(2-Dibutylamino-ethoxy)-benzyl]-2-(4-hydroxy-phenyl)-3-methyl-1H-indol-5-ol] | 10% | 13% |  | 
Cc1c(-c2ccc(O)cc2)n(Cc2ccc(OCCN(C(C)C)C(C)C)cc2)c2ccc(O)cc12 [No. 104, 1-[4-(2-Diisopropylamino-ethoxy)-benzyl]-2-(4-hydroxy-phenyl)-3-methyl-1H-indol-5-ol] | 7% | 7% |  | 
CCCCN(C)CCOc1ccc(Cn2c(-c3ccc(O)cc3)c(C)c3cc(O)ccc32)cc1 [No. 105, 1-{4-[2-(Butyl-methyl-amino)-ethoxy]-benzyl}-2-(4-hydroxy-phenyl)-3-methyl-1H-indol-5-ol] | 5% | 5% |  | 
Cc1c(-c2ccc(O)cc2)n(Cc2ccc(OCCN3CCCCC3C)cc2)c2ccc(O)cc12 (stereo not shown) [No. 108, 2-(4-Hydroxy-phenyl)-3-methyl-1-{4-[2-(2-methyl-piperidin-1-yl)-ethoxy]-benzyl}-1H-indol-5-ol] | 10% | 11% |  | 
Cc1c(-c2ccc(O)cc2)n(Cc2ccc(OCCN3CCCC(C)C3)cc2)c2ccc(O)cc12 (stereo not shown) [No. 109, 2-(4-Hydroxy-phenyl)-3-methyl-1-{4-[2-(3-methyl-piperidin-1-yl)-ethoxy]-benzyl}-1H-indol-5-ol] | 5% | 6% |  | 
Cc1c(-c2ccc(O)cc2)n(Cc2ccc(OCCN3CCC(C)CC3)cc2)c2ccc(O)cc12 [No. 110, 2-(4-Hydroxy-phenyl)-3-methyl-1-{4-[2-(4-methyl-piperidin-1-yl)-ethoxy]-benzyl}-1H-indol-5-ol] | 10% | 8% |  | 
Cc1c(-c2ccc(O)cc2)n(Cc2ccc(OCCN3CCCC(C)(C)C3)cc2)c2ccc(O)cc12 [No. 111, 1-{4-[2-(3,3-Dimethyl-piperidin-1-yl)-ethoxy]-benzyl}2-(4-hydroxy-phenyl)-3-methyl-1H-indol-5-ol] | 23% | 25% |  | 
Cc1c(-c2ccc(O)cc2)n(Cc2ccc(OCCN3CCC(O)CC3)cc2)c2ccc(O)cc12 [No. 113, 2-(4-Hydroxy-phenyl)-1-{4-[2-(4-hydroxy-piperidin-1-yl)-ethoxy]-benzyl}-3-methyl-1H-indol-5-ol] | 16% | 14% |  | 
Cc1c(-c2ccc(O)cc2)n(Cc2ccc(OCCN3C[C@@H]4CC[C@H]3C4)cc2)c2ccc(O)cc12 [No. 114, (1S,4R)-1-{4-[2-(2-Aza-bicyclo[2.2.1]hept-2-yl)-ethoxy]-benzyl}-2-(4-hydroxy-phenyl)-3-methyl-1H-indol-5-ol] | −1% | 1% |  | 
Cc1c(-c2ccc(O)cc2)n(Cc2ccc(OCCN3CC4(C)CC3CC(C)(C)C4)cc2)c2ccc(O)cc12 (stereo not shown) [No. 115, 2-(4-Hydroxy-phenyl)-3-methyl-1-{4-[2-(1,3,3-trimethyl-6-aza-bicyclo[3.2.1]oct-6-yl)-ethoxy]-benzyl}-1H-indol-5-ol] | 10% | 11% |  | 
Cc1c(-c2cccc(O)c2)n(Cc2ccc(OCCN3CCCCC3)cc2)c2ccc(O)cc12 [No. 127, 2-(3-Hydroxy-phenyl)-3-methyl-1-[4-(2-piperidin-1-yl-ethoxy)-benzyl]-1H-indol-5-ol] | −4% | −3% |  | 
Oc1ccc(-c2c(Cl)c3cc(O)ccc3n2Cc2ccc(OCCN3CCCC3)cc2)cc1 [No. 133, 3-Chloro-2-(4-hydroxy-phenyl)-1-[4-(2-pyrrolidin-1-yl-ethoxy)-benzyl]-1H-indol-5-ol] | 9% | 7% |  | 
CCc1c(-c2ccc(O)cc2)n(Cc2ccc(OCCN3CCCCC3)cc2)c2ccc(O)cc12 [No. 137, 2-(4-Hydroxy-phenyl)-3-ethyl-1-[4-(2-piperidin-1-yl-ethoxy)-benzyl]-1H-indol-5-ol] | 8% | 6% |  | 
N#Cc1c(-c2ccc(O)cc2)n(Cc2ccc(OCCN3CCCCCC3)cc2)c2ccc(O)cc12 [No. 139, 1-[4-(2-Azepan-1-yl-ethoxy)-benzyl]-5-hydroxy-2-(4-hydroxy-phenyl)-1H-indole-3-carbonitrile] |  |  | 45.0 mg | 30.4 mg
Cc1c(-c2ccc(O)cc2)n(Cc2ccc(OCCCN3CCCCC3)cc2)c2ccc(O)cc12 [No. 166, 2-(4-Hydroxy-phenyl)-3-methyl-1-{4-[3-(piperidin-1-yl)-propoxy]-benzyl}-1H-indol-5-ol] | 23% | 25% |  | 
